Measured values from patent publication US11312712B2, “Azabenzimidazoles and their use as AMPA receptor modulators” (Janssen Pharmaceutica NV, priority 2015, dated 2022).

Target: GluA1o-γ8 (GRIA1o-CACNG8 fusion construct) (Homo sapiens (Human), UniProt P42261+Q8WXS5)
Assay: Calcium flux assay (FLIPR), inhibition of TARP γ8 dependent AMPA receptor activity
Format: cell-based
Details: GluA1o-γ8 (GRIA1o-CACNG8 fusion) in HEK293 cells, calcium flux after 15 μM glutamate
Summary of the method: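 HEK293 cells stably expressing a 1:1 GRIA1o–CACNG8 fusion were loaded with Calcium-5/6 dye plus compound in pH 7.4 HEPES-buffered saline. FLIPR calcium flux after 15 μM glutamate was normalized to untreated and 10 μM CP465022 controls, and a four-parameter logistic fit gave pIC50.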

Chain of GluA1o-γ8 (GRIA1o-CACNG8 fusion construct) (P42261 other isoform, or with tags, fused parts or gaps): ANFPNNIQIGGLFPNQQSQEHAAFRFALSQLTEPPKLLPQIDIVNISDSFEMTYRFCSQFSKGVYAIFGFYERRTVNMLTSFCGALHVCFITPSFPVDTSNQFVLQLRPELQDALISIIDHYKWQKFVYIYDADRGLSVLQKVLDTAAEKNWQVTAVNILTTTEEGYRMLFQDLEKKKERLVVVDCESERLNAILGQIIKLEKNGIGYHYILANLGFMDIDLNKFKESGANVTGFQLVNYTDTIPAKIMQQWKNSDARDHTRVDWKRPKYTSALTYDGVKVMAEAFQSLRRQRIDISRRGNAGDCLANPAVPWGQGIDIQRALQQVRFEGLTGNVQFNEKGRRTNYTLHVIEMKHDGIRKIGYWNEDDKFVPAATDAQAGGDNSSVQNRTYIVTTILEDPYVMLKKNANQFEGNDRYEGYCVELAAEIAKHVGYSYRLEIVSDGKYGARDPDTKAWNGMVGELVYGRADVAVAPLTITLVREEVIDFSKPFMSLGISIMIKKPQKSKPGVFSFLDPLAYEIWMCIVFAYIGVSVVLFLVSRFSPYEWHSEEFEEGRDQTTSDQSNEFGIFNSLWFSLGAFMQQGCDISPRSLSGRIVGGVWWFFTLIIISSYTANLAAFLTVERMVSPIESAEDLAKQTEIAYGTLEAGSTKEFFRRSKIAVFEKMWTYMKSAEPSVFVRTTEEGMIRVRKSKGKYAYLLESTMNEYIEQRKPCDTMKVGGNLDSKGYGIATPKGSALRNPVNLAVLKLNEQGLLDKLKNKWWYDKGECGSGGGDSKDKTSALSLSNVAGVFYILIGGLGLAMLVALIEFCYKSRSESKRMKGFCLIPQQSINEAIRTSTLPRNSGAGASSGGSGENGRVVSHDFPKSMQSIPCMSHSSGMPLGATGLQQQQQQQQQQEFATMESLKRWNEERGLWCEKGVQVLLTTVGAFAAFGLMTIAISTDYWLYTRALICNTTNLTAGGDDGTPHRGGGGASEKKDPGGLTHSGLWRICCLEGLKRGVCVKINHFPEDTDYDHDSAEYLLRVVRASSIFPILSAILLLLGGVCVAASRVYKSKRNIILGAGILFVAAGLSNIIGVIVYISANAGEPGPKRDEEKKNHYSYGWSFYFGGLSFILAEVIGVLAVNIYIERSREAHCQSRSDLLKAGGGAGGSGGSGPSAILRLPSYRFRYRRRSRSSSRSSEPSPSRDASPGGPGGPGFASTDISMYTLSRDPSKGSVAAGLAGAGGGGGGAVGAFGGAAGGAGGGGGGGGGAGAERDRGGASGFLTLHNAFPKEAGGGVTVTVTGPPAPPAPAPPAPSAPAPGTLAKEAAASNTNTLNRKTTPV

IC50 [nM] | Structure (SMILES)
0.2 | O=c1[nH]c2c(Br)cc(-n3c(C(F)(F)F)nc4ccc(C(F)(F)F)nc43)cc2o1 [Example 290, 6-[2,5-Bis(trifluoromethyl)imidazo[4,5-b]pyridin-3-yl]-4-bromo-3H-1,3-benzoxazol-2-one]
63.1 | FC(F)(F)c1ccc2nc(C(F)(F)F)n(-c3ccc4cn[nH]c4c3)c2n1 [Example 291, 3-(1H-Indazol-6-yl)-2,5-bis(trifluoromethyl)imidazo[4,5-b]pyridine]
7.94 | O=C1Cc2cc(-n3c(C(F)(F)F)nc4ccc(C(F)(F)F)nc43)cnc2N1 [Example 292, 5-[2,5-Bis(trifluoromethyl)imidazo[4,5-b]pyridin-3-yl]-1,3-dihydropyrrolo[2,3-b]pyridin-2-one]
39.8 | FC(F)(F)c1ccc2nc(C(F)(F)F)n(-c3cnc4[nH]ccc4c3)c2n1 [Example 293, 3-(1H-Pyrrolo[2,3-b]pyridin-5-yl)-2,5-bis(trifluoromethyl)imidazo[4,5-b]pyridine]
0.02 | Cc1cc(-n2c(C(F)(F)F)nc3ccc(C(F)(F)F)nc32)cc2cn[nH]c12 [Example 294, 3-(7-Methyl-1H-indazol-5-yl)-2,5-bis(trifluoromethyl)imidazo[4,5-b]pyridine]
39.8 | N#Cc1n[nH]c2ccc(-n3c(C(F)(F)F)nc4ccc(C(F)(F)F)nc43)cc12 [Example 295, 5-[2,5-Bis(trifluoromethyl)imidazo[4,5-b]pyridin-3-yl]-1H-indazole-3-carbonitrile]
158 | Oc1n[nH]c2ccc(-n3c(C(F)F)nc4ccc(C(F)(F)F)nc43)cc12 [Example 296, 5-[2-(Difluoromethyl)-5-(trifluoromethyl)imidazo[4,5-b]pyridin-3-yl]-1H-indazol-3-ol]
1000 | O=C1Cc2ccc(-n3c(C4CC4)nc4ccc(C(F)(F)F)nc43)cc2N1 [Example 297, 6-[2-Cyclopropyl-5-(trifluoromethyl)imidazo[4,5-b]pyridin-3-yl]indolin-2-one]
79.4 | CC(C)c1nc2ccc(C(F)(F)F)nc2n1-c1ccc2[nH]nc(Br)c2c1 [Example 298, 3-(3-Bromo-1H-indazol-5-yl)-2-isopropyl-5-(trifluoromethyl)imidazo[4,5-b]pyridine]
0.2 | CC(C)c1nc2ccc(C(F)(F)F)nc2n1-c1cc(Cl)c2c(c1)CC(=O)N2 [Example 299, 7-Chloro-5-[2-isopropyl-5-(trifluoromethyl)imidazo[4,5-b]pyridin-3-yl]indolin-2-one]
2.51 | CC(C)c1nc2cc(F)cnc2n1-c1cc(Cl)c2[nH]ncc2c1 [Example 300, 3-(7-Chloro-1H-indazol-5-yl)-6-fluoro-2-isopropyl-imidazo[4,5-b]pyridine]
31.6 | CC(C)c1nc2ccc(C(F)(F)F)nc2n1-c1cnc2c(c1)CC(=O)N2 [Example 301, 5-[2-Isopropyl-5-(trifluoromethyl)imidazo[4,5-b]pyridin-3-yl]-1,3-dihydropyrrolo[2,3-b]pyridin-2-one]
39.8 | CC(C)c1nc2ccc(C(F)(F)F)nc2n1-c1cnc2[nH]ncc2c1 [Example 302, 2-Isopropyl-3-(1H-pyrazolo[3,4-b]pyridin-5-yl)-5-(trifluoromethyl)imidazo[4,5-b]pyridine]
31.6 | CC(C)c1nc2ccc(C(F)(F)F)nc2n1-c1cnc2[nH]ccc2c1 [Example 303, 2-Isopropyl-3-(1H-pyrrolo[2,3-b]pyridin-5-yl)-5-(trifluoromethyl)imidazo[4,5-b]pyridine]
63.1 | C=CCc1cc(-n2c(C(F)(F)F)nc3ccc(C(F)(F)F)nc32)cc2cn[nH]c12 [Example 304, 3-(7-Allyl-1H-indazol-5-yl)-2,5-bis(trifluoromethyl)-3H-imidazo[4,5-b]pyridine]
0.02 | C=C(C)c1cc(-n2c(C(F)(F)F)nc3ccc(C(F)(F)F)nc32)cc2cn[nH]c12 [Example 305, 3-(7-(Prop-1-en-2-yl)-1H-indazol-5-yl)-2,5-bis(trifluoromethyl)-3H-imidazo[4,5-b]pyridine]
2.51 | FC(F)(F)c1ccc2ncn(-c3cc(Cl)c4[nH]ncc4c3)c2n1 [Example 306, 3-(7-Chloro-1H-indazol-5-yl)-5-(trifluoromethyl)imidazo[4,5-b]pyridine]
0.00501 | FC(F)(F)c1ccc2nc(C3CC3)n(-c3cc(Cl)c4[nH]ncc4c3)c2n1 [Example 307, 3-(7-Chloro-1H-indazol-5-yl)-2-cyclopropyl-5-(trifluoromethyl)imidazo[4,5-b]pyridine]
0.00501 | FC(F)(F)c1ccc2nc(C3CCC3)n(-c3cc(Cl)c4[nH]ncc4c3)c2n1 [Example 308, 3-(7-Chloro-1H-indazol-5-yl)-2-cyclobutyl-5-(trifluoromethyl)imidazo[4,5-b]pyridine]
0.631 | Cc1cc(-n2c(C)nc3ccc(C(F)(F)F)nc32)cc2c1NC(=O)C2 [Example 309, 7-Methyl-5-[2-methyl-5-(trifluoromethyl)imidazo[4,5-b]pyridin-3-yl]indolin-2-one]

IC50 [nM] | Structure (SMILES)
0.158 | Cc1cc(-n2c(C(C)C)nc3ccc(C(F)(F)F)nc32)cc2c1NC(=O)C2 [Example 310, 5-[2-Isopropyl-5-(trifluoromethyl)imidazo[4,5-b]pyridin-3-yl]-7-methyl-indolin-2-one]
15.8 | Cc1cc(-n2c(C(C)C)nc3ccc(C(F)(F)F)nc32)cc2[nH]ncc12 [Example 311, 2-Isopropyl-3-(4-methyl-1H-indazol-6-yl)-5-(trifluoromethyl)imidazo[4,5-b]pyridine]
0.251 | Cc1nc2ccc(C(F)(F)F)nc2n1-c1cc(Cl)c2[nH]ncc2c1 [Example 312, 3-(7-Chloro-1H-indazol-5-yl)-2-methyl-5-(trifluoromethyl)imidazo[4,5-b]pyridine]
1 | Cc1nc2ccc(C(F)(F)F)nc2n1-c1cc(Cl)c2c(c1)CC(=O)N2 [Example 313, 7-Chloro-5-[2-methyl-5-(trifluoromethyl)imidazo[4,5-b]pyridin-3-yl]indolin-2-one]
0.0316 | CCc1nc2ccc(C(F)(F)F)nc2n1-c1cc(Cl)c2[nH]ncc2c1 [Example 314, 3-(7-Chloro-1H-indazol-5-yl)-2-ethyl-5-(trifluoromethyl)imidazo[4,5-b]pyridine]
0.1 | CCc1nc2ccc(C(F)(F)F)nc2n1-c1cc(C)c2[nH]ncc2c1 [Example 315, 2-Ethyl-3-(7-methyl-1H-indazol-5-yl)-5-(trifluoromethyl)imidazo[4,5-b]pyridine]
0.02 | CC(C)c1nc2ccc(C(F)(F)F)nc2n1-c1cc(Cl)c2[nH]ncc2c1 [Example 316, 3-(7-Chloro-1H-indazol-5-yl)-2-isopropyl-5-(trifluoromethyl)imidazo[4,5-b]pyridine]
10 | Cc1cc(-n2c(C(F)(F)F)nc3cccnc32)cc2cn[nH]c12 [Example 317, 3-(7-Methyl-1H-indazol-5-yl)-2-(trifluoromethyl)imidazo[4,5-b]pyridine]
31.6 | Cc1cc(-n2c(C(F)(F)F)nc3cccnc32)cc2c1NC(=O)C2 [Example 318, 7-Methyl-5-[2-(trifluoromethyl)imidazo[4,5-b]pyridin-3-yl]indolin-2-one]
0.631 | Cc1cc(-n2c(C)nc3ccc(C(F)(F)F)nc32)cc2cn[nH]c12 [Example 319, 2-Methyl-3-(7-methyl-1H-indazol-5-yl)-5-(trifluoromethyl)imidazo[4,5-b]pyridine]
200 | FC(F)(F)c1nc2ccc(-c3ccccn3)nc2n1-c1ccc2[nH]ncc2c1 [Example 320, 3-(1H-Indazol-5-yl)-5-(2-pyridyl)-2-(trifluoromethyl)imidazo[4,5-b]pyridine]
1 | FC(F)c1ccc2nc(C3CC3)n(-c3ccc4[nH]ncc4c3)c2n1 [Example 321, 2-Cyclopropyl-5-(difluoromethyl)-3-(1H-indazol-5-yl)imidazo[4,5-b]pyridine]
0.0631 | Fc1ccc(-c2nc3ccc(C(F)F)nc3n2-c2ccc3[nH]ncc3c2)cc1 [Example 322, 5-(Difluoromethyl)-2-(4-fluorophenyl)-3-(1H-indazol-5-yl)imidazo[4,5-b]pyridine]
0.0501 | FC(F)c1ccc2nc(-c3ccccc3)n(-c3ccc4[nH]ncc4c3)c2n1 [Example 323, 5-(Difluoromethyl)-3-(1H-indazol-5-yl)-2-phenyl-imidazo[4,5-b]pyridine]
0.0501 | FC(F)c1ccc2nc(C(F)(F)F)n(-c3cc(Cl)c4[nH]ncc4c3)c2n1 [Example 324, 3-(7-Chloro-1H-indazol-5-yl)-5-(difluoromethyl)-2-(trifluoromethyl)imidazo[4,5-b]pyridine]
0.316 | O=C1Cc2cc(-n3c(C(F)(F)F)nc4ccc(C(F)F)nc43)cc(F)c2N1 [Example 325, 5-[5-(Difluoromethyl)-2-(trifluoromethyl)imidazo[4,5-b]pyridin-3-yl]-7-fluoro-indolin-2-one]
0.0398 | Cc1cc(-n2c(C(F)(F)F)nc3ccc(C(F)F)nc32)cc2cn[nH]c12 [Example 326, 5-(Difluoromethyl)-3-(7-methyl-1H-indazol-5-yl)-2-(trifluoromethyl)imidazo[4,5-b]pyridine]
0.251 | Cc1ccc2nc(-c3ccnc(F)c3)n(-c3cc(Cl)c4[nH]ncc4c3)c2n1 [Example 327, 3-(7-Chloro-1H-indazol-5-yl)-2-(2-fluoro-4-pyridyl)-5-methyl-imidazo[4,5-b]pyridine]
1 | Cc1cc(-n2c(CO)cc3ccc(C(F)(F)F)nc32)cc2c1NC(=O)C2 [Example 329, 5-(2-(Hydroxymethyl)-6-(trifluoromethyl)-1H-pyrrolo[2,3-b]pyridin-1-yl)-7-methylindolin-2-one]
25.1 | OCc1cc2ccc(C(F)(F)F)nc2n1-c1ccc2[nH]ncc2c1 [Example 330, (1-(1H-Indazol-5-yl)-6-(trifluoromethyl)-1H-pyrrolo[2,3-b]pyridin-2-yl)methanol]
